US20250090603A1, “COMPOSITIONS CONTAINING BACILLAENE PRODUCING BACTERIA OR PREPARATIONS THEREOF” (Evonik Operations GmbH, priority 2019, published 2025)

Assays:
[1] = tested on: S. enterica subsp. enterica enteritidis DSM 14221; assay type: cell-based, Salmonella enterica
[2] = tested on: Vibrio parahaemolyticus DSM 10027; assay type: cell-based; settings: concluded from experiments with knock-out mutants

C/C(=C/C=C/C=C/C(C)C(=O)O)NC(=O)CC(O)\C(C)=C/C=C\C=C(C)\C=C\C=C/C=C/CNC(=O)C(O)CC(C)C (centres unmarked) [bacillaene]
inhibition of growth of Salmonella enterica (in words) [1]: effectively inhibit the growth
inhibition of growth of Vibrio parahaemolyticus (in words) [2]: effectively inhibit the growth
